From ChEMBL document CHEMBL1201862, “PubChem BioAssay data set” (2004)
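In this assay, cells in 96-well plates receive the compound at five concentrations for 48 hours. Endpoints are linearly interpolated between the surrounding concentrations. GI50 = concentration required for 50% inhibition of growth.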 Calls of active or inactive are those of the source. No stated cut-off is given here; in the data, active = GI50 up to about 1.1 µM and inactive = higher.

Columns and labels:
Test in all cases: NCI tumour cell line growth inhibition, 48 h
786-0 = tested on: 786-0
ACHN = tested on: ACHN
CAKI-1 = tested on: CAKI-1
HCC 2998 = tested on: HCC 2998
HOP-62 = tested on: HOP-62
HT-29 = tested on: HT-29
M14 = tested on: M14
MDA-MB-435 = tested on: MDA-MB-435
MDA-N = tested on: MDA-N
MOLT-4 = tested on: MOLT-4
NCI-H522 = tested on: NCI-H522
NCI/ADR-RES = tested on: NCI/ADR-RES
OVCAR-5 = tested on: OVCAR-5
SNB-19 = tested on: SNB-19
SR = tested on: SR
SW-620 = tested on: SW-620
TK-10 = tested on: TK-10
U-251 = tested on: U-251
UACC-257 = tested on: UACC-257
UACC-62 = tested on: UACC-62

Compound	GI50 (786-0)	GI50 (ACHN)	GI50 (CAKI-1)	GI50 (HCC 2998)	GI50 (HOP-62)	GI50 (HT-29)	GI50 (M14)	GI50 (MDA-MB-435)	GI50 (MDA-N)	GI50 (MOLT-4)	GI50 (NCI-H522)	GI50 (NCI/ADR-RES)	GI50 (OVCAR-5)	GI50 (SNB-19)	GI50 (SR)	GI50 (SW-620)	GI50 (TK-10)	GI50 (U-251)	GI50 (UACC-257)	GI50 (UACC-62)
C[C@@H]1C[C@H]2OC(=O)[C@@]3(C)CCC[C@@](C)([C@@H]23)[C@@]1(O)CCc1ccoc1	> 100 µM (inactive)	> 100 µM (inactive)	> 100 µM (inactive)	> 100 µM (inactive)	> 100 µM (inactive)	> 95.7 µM (inactive)	> 100 µM (inactive)	> 100 µM (inactive)	> 100 µM (inactive)	38 µM (inactive)	> 61.8 µM (inactive)	> 100 µM (inactive)	> 100 µM (inactive)	> 100 µM (inactive)	44.5 µM (inactive)	> 100 µM (inactive)	> 100 µM (inactive)	> 100 µM (inactive)	> 95.7 µM (inactive)	> 62.4 µM (inactive)
COc1c2c(cc3nc4ccccc4nc13)CC[C@H](NC(C)=O)c1cc(=O)c(SC)ccc1-2	0.506 µM (active)	4.15 µM (inactive)	5.62 µM (inactive)	1.25 µM (inactive)	11.9 µM (inactive)	1.04 µM (active)	0.55 µM (active)	0.132 µM (active)	0.18 µM (active)	0.555 µM (active)	0.275 µM (active)	12.5 µM (inactive)	24.5 µM (inactive)	0.446 µM (active)	0.322 µM (active)	0.582 µM (active)	8.07 µM (inactive)	0.353 µM (active)	1.59 µM (inactive)	0.437 µM (active)
COc1cc(O)c2c(=O)c3ccccc3n(C)c2c1	21.5 µM (inactive)	14 µM (inactive)	> 100 µM (inactive)	> 100 µM (inactive)	15.9 µM (inactive)	> 100 µM (inactive)	> 100 µM (inactive)	> 100 µM (inactive)	> 100 µM (inactive)	8.43 µM (inactive)	22.3 µM (inactive)	32.7 µM (inactive)	> 100 µM (inactive)	0.253 µM (active)	7.26 µM (inactive)	63.8 µM (inactive)	20.1 µM (inactive)	29.4 µM (inactive)	> 100 µM (inactive)	24.6 µM (inactive)
Nc1ncnc2c1ncn2C1OC(CO)C2OC21 (stereo not given)	> 10 µM (inactive)	> 100 µM (inactive)	> 100 µM (inactive)	> 100 µM (inactive)	> 100 µM (inactive)	> 100 µM (inactive)	> 10 µM (inactive)	> 10 µM (inactive)	> 10 µM (inactive)	> 100 µM (inactive)	> 100 µM (inactive)	> 10 µM (inactive)	> 100 µM (inactive)	> 100 µM (inactive)	> 100 µM (inactive)	> 100 µM (inactive)	> 100 µM (inactive)	> 100 µM (inactive)	> 100 µM (inactive)	> 100 µM (inactive)
